The values that follow come from patent publication US20260345717A1, “COMPOSITION FOR PREVENTING, AMELIORATING, OR TREATING ALZHEIMER'S DISEASE COMPRISING GRAPEVINE STEM EXTRACT OR COMPOUND ISOLATED THEREFROM AS EFFECTIVE COMPONENT” (KOREA INSTITUTE OF ORIENTAL MEDICINE, priority 2022, published 2026).

Data set [1] deals with herpes simplex virus (HSV-1) in Vero cells. Briefly: Antiviral effect: HSV-1 (GFP) infection of Vero cells, flow cytometry. It is filed as cell-based. Particulars: for inhibition at 10 µM / inhibition at 5 µM: Human alphaherpesvirus 1, Vero, 18 h, read-out: inhibition rate of virus replication; for antiviral effect compared with other components of the extract: FIG. 2. Here is the method:
Vero cells were cultured in DMEM medium supplemented with 10% fetal bovine serum (FBS) and 1% penicillin/streptomycin. After culturing, the cells were infected with herpes simplex virus (HSV-1, 0.1 MOI) for 2 hours in DMEM medium supplemented with 1% penicillin/streptomycin. The infection solution was removed, the cells were washed with PBS and then treated with the samples from Preparation example 1 at different concentrations in DMEM supplemented with 10% FBS and 1% penicillin/streptomycin. The cells were subsequently cultured for 18 hours. Afterwards, the cells were recovered, fixed with 4% paraformaldehyde, washed with PBS, and GFP of the virus was quantified using flow cytometry. The cell infection rate was expressed as the infection rate compared to the group (Virus) that had not been treated with any sample.
In addition, the antiviral effect of the components contained in the grapevine stem extract obtained in Preparation example 2, i.e., vitisin A, &-viniferin, caraphenol A, betuin, cis-vitisin A, ampelopsin A, lupeol, vitisin B, malibatol A, viniferether B, lupenone, and resveratrol, was also determined by conducting experiments in the same manner as above.

Data set [2] concerns U373-MG cells infected with herpes simplex virus (HSV-1). Nature of the data set: Cell survival of HSV-1 infected U373-MG cells, MTT assay. It counts as cell-based, human. Particulars: compared to untreated group (control), FIG. 5A; for viability at 10 µM: Homo sapiens, 18 h, read-out: cell survival rate. Here is the method:
(§1) U373-MG cells, a human-derived glioblastoma, were cultured in RPMI1640 medium supplemented with 10% FBS (Fetal bovine serum) and 1% penicillin/streptomycin. After culturing, the cells were infected with herpes simplex virus (HSV-1, 0.1 MOI) in RPMI1640 medium supplemented with 1% penicillin/streptomycin. After 2 hours, the infection solution was removed. After washing with PBS, the cells were treated for 18 hours with a sample in RPMI1640 supplemented with 10% FBS and 1% penicillin/streptomycin. […] Cell survival rate was expressed as cell survival rate compared to the untreated group (control).

Data set [3] has as its system gB protein of the herpes simplex virus. Nature of the data set: gB viral protein expression in HSV-1 infected U373-MG cells, Western blot. The conditions noted are these: 10 μM, FIG. 5B, 1080 min. It is filed as cell-based, herpes simplex virus (HSV-1).
Another data set relates to tau protein (p-tau). Briefly: Phosphorylation of tau protein (p-tau) in HSV-1 infected U373-MG cells, Western blot. It counts as cell-based, human. Particulars: 10 μM, FIGS. 10A and 10B. Here is the method: as §1
(§2) The experiment was conducted in the same manner as the cell experiment in Example 3, but vitisin A, cis-vitisin A, and vitisin B isolated from grapevine stem extract were treated as test samples, and cell proteins were isolated to determine the expression of proteins that are related to dementia.

The test system of a further data set is amyloid beta (Aβ1-42). Nature of the data set: Amyloid beta (Aβ1-42) expression in HSV-1 infected U373-MG cells, Western blot. It is filed as cell-based, human. Particulars: 10 μM, FIGS. 10A and 10B. As to the method:
as §1, §2

Data set [4] concerns herpes simplex virus protein VP16. Nature of the data set: VP16 viral protein expression in HSV-1 infected U373-MG cells. It is filed as cell-based, herpes simplex virus (HSV-1). The conditions noted are these: concentration not restated.
The subject of data set [5] is herpes simplex virus protein ICP27. Nature of the data set: ICP27 viral protein expression in HSV-1 infected U373-MG cells. It is filed as cell-based, herpes simplex virus (HSV-1). The conditions noted are these: concentration not restated.

Consider `Oc1ccc(-c2oc3cc(O)cc4c3c2-c2cc(O)cc3c2[C@H](c2cc(O)cc5c2[C@@H]4[C@H](c2ccc(O)cc2)O5)[C@@H](c2ccc(O)cc2)O3)cc1` [caraphenol A], for which the inhibition at 10 µM in data set [1] was 41%.
Still for that read-out and setting: the value for `Oc1ccc([C@H]2c3c(O)cc(O)cc3[C@H]3c4c(cc(O)cc4[C@@H]2O)O[C@@H]3c2ccc(O)cc2)cc1` [amphelopsin A, ampelopsin A] was 54%.
As for cis-vitisin A, the cell survival rate in data set [2] (10 μM, 1080 min) is given as 84%. For the same compound, the “reduction of gB protein compared to the virus-infected group” value (from here on “reduction of gB protein”) in data set [3] stood at 27%.
As to `Oc1ccc(C=Cc2cc(O)cc(O)c2)cc1` (single isomer, unassigned) [Resveratrol, resveratrol], the “inhibition of viral infection” value in data set [1] (Vero cells, HSV-1 0.1 MOI, 18 hours, concentration not restated in this sentence) is 67%.
Regarding `Oc1ccc([C@H]2Oc3cc(O)cc(/C=C/c4ccc5c(c4)[C@@H](c4cc(O)cc6c4[C@H](c4cc(O)cc(O)c4)[C@@H](c4ccc(O)cc4)O6)[C@H](c4ccc(O)cc4)O5)c3[C@@H]2c2cc(O)cc(O)c2)cc1` [vitisin B], the viability at 10 µM in data set [2] was found to be 76%. In addition, the “reduction of gB protein” value in data set [3] is listed as 66%. In addition, in data set [1], the inhibition at 5 µM came to 80% and the inhibition at 10 µM turned out to be 76%. Besides, the “antiviral effect compared with other components of the extract” value in data set [1] (Vero cells) is on record as “best antiviral effect”.
Regarding `C=C(C)[C@@H]1CC[C@]2(C)CC[C@]3(C)[C@H](CC[C@@H]4[C@@]5(C)CC[C@H](O)C(C)(C)[C@@H]5CC[C@]43C)[C@@H]12` (single isomer, unassigned) [lupeol], in data set [1], the inhibition at 10 µM came to 59%.
As to `Oc1ccc([C@H]2c3c(O)cc(O)cc3[C@H]3c4c(cc(O)cc4[C@@H]2c2cc(/C=C/c4cc(O)cc5c4[C@H](c4cc(O)cc(O)c4)[C@@H](c4ccc(O)cc4)O5)ccc2O)O[C@@H]3c2ccc(O)cc2)cc1` [vitisin A], the “phosphorylation of tau protein (p-tau) compared to the virus-infected group” value in the data set with tau protein (p-tau) is given as “significantly reduced”. Further, the “expression of amyloid beta (Aβ1-42) compared to the virus-infected group” value in the data set on amyloid beta (Aβ1-42) is on record as “significantly reduced”. The viability at 10 µM in data set [2] was 87%. Moreover, in data set [3], the “reduction of gB protein” value is given as 99%. Further, in data set [1], the inhibition at 5 µM was 80% and the inhibition at 10 µM was 96%. The “antiviral effect compared with other components of the extract” value in data set [1] (Vero cells) is “best antiviral effect”. Moreover, in data set [4], the “inhibition rate against VP16 compared to the virus-infected group” value was 100%. The “inhibition rate against ICP27 compared to the virus-infected group” value in data set [5] is 93%.
Take `Oc1ccc(/C=C/c2cc(O)cc3c2C(c2cc(O)cc(O)c2)C(c2ccc(O)cc2)O3)cc1` (stereo not drawn) [ε-viniferin]: in data set [1], the inhibition at 10 µM was 42%.
